Measurements published in patent US20030055065A1, “Tricyclic amide and urea compounds useful for inhibition of G-protein function and for treatment of proliferative diseases” (priority 1993, published 2003).
Several values for one entry are separate records, joined by “and”; a condition that tells them apart may be missing. Equal entries are not always repeated. Where two headings read alike, the source gives them in different places.

Legend:
[1] = test system: Normal human HEPM fibroblasts; assay: Cell Mat Assay: density of mat cells (mIC50); format: cell-based
In short: (§1)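 Serial compound dilutions added 24 h after planting T24-BAG4 cells onto a mat of normal cells, then 14 d colony growth; monolayers glutaraldehyde-fixed and tumor cells X-Gal stained. tIC50 and mIC50 from microscope counts of colonies, cells per colony and mat cell density.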

[2] = test system: Ras-CVLS processing in COS monkey kidney cells; assay: COS cell assay: Ras-CVLS processing (Western blot); format: cell-based; settings: COS cells; for IC50: read-out: Inhibition of Ras Processing IC50; for Inhibition of Ras Processing at the concentration in parentheses: (5) μM
In short: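 COS cells electroporated with Ras-CVLS (farnesyl transferase substrate) cDNA, with drug-containing fresh medium added at 24 h and cells examined at 48 h. TCA-precipitated cellular protein was resolved by SDS gel and immunoblotted with anti-p21 Ras monoclonal and HRP anti-rat IgG to monitor Ras processing.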

[3] = molecular target: T1, geranylgeranyl protein transferase (GGPT) I (Rattus norvegicus, UniProt P53610+Q04631); assay: Inhibition of geranylgeranyl protein transferase I (Ras-CVLL as acceptor); format: biochemical; settings: for IC50: enzyme inhibition
T1 construct: were partially purified from rat brain by ammonium sulfate fractionation followed by Q-Sepharose
Excerpt: 1. In vitro enzyme assays: Inhibition of farnesyl protein transferase and geranylgeranyl protein transferase.
Both farnesyl protein transferase (FPT) and geranylgeranyl protein transferase (GGPT) I were partially purified from rat brain by ammonium sulfate fractionation followed by Q-Sepharose (Pharmacia, Inc.) anion exchange chromatography essentially as described by Yokoyama et al (Yokoyama, K., et al., (1991), A protein geranylgeranyltransferase from bovine brain: Implications for protein prenylation specificity, Proc. Natl. Acad. Sci USA 88: 5302-5306, the disclosure of which is incorporated herein by reference thereto). Human farnesyl protein transferase was also expressed in E. coli, using cDNA clones encoding both the α and β subunits. The methods used were similar to those published (Omer, C. et al., (1993), Characterization of recombinant human farnesyl protein transferase: Cloning, expression, farnesyl diphosphate binding, and functional homology with yeast prenyl-protein transferases, Biochemistry 32:5167-5176). Human farnesyl protein transferase was partially-purified from the soluble protein fraction of E. coli as described above. […] Two forms of val^12-Ha-Ras protein were prepared as substrates for these enzymes, differing in their carboxy terminal sequence. One form terminated in cysteine-valine-leucine-serine (Ras-CVLS) the other in cystein-valine-leucine-leucine (Ras-CVLL). Ras-CVLS is a substrate for the farnesyl protein transferase while Ras-CVLL is a substrate for geranylgeranyl protein transferase I. The cDNAs encoding these proteins were constructed so that the proteins contain an amino-terminal extension of 6 histidine residues. Both proteins were expressed in Escherichia coli and purified using metal chelate affinity chromatography. The radiolabelled isoprenyl pyrophosphate substrates, [^3H]farnesyl pyrophosphate and [3H]geranylgeranyl pyrophosphate, were purchased from DuPont/New England Nuclear.
The geranylgeranyl protein transferase I assay was essentially identical to the farnesyl protein transferase assay described above, with two exceptions: [^3H]geranylgeranylpyrophosphate replaced farnesyl pyrophosphate as the isoprenoid donor and Ras-CVLL was the protein acceptor.

[4] = test system: T24-BAG4 human bladder carcinoma cells expressing an activated H-ras gene; assay: Cell Mat Assay: tumor cell colony inhibition (tIC50); format: cell-based; settings: inhibition of tumor cell growth
In short: as §1

[5] = molecular target: T2, farnesyl protein transferase (FPT), partially purified from rat brain (Rattus norvegicus, UniProt Q02293+Q04631); assay: Inhibition of farnesyl protein transferase (transfer of [3H]farnesyl to Ras-CVLS); format: biochemical; settings: read-out: FPT IC50
T2 construct: were partially purified from rat brain by ammonium sulfate fractionation followed by Q-Sepharose
In short: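 Partially purified farnesyl protein transferase with His6-tagged val12-Ha-Ras-CVLS substrate and [3H]farnesyl pyrophosphate, 30 min at room temperature. Stopped with SDS/TCA, precipitated Ras collected on GF/C filters; percent inhibition relative to DMSO vehicle control.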

[6] = Ras-CVLS farnesylation, partially purified rat brain FPT

T2 sequence (Q02293 whole entry, one chain of several): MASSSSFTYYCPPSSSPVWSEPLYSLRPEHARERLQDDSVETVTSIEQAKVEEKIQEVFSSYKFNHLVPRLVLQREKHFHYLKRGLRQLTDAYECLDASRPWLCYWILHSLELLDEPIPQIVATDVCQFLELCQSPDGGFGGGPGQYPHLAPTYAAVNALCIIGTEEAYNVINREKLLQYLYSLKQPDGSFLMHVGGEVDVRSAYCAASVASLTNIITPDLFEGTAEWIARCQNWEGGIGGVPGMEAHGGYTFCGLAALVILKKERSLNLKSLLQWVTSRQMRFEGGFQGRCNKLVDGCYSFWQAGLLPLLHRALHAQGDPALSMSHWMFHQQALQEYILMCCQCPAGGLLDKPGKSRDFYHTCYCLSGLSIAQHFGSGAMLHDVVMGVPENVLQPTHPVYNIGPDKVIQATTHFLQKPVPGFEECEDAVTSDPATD
T1 sequence (P53610 whole entry, one chain of several): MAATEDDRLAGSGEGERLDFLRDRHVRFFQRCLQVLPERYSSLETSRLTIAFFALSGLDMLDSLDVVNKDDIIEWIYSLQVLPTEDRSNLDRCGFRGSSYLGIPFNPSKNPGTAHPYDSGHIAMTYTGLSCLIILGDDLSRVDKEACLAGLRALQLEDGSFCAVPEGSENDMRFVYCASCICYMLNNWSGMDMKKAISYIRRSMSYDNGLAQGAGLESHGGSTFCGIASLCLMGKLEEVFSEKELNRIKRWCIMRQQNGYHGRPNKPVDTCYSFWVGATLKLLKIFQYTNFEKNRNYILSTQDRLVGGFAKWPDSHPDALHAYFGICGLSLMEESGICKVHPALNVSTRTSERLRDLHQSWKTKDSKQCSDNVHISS

| IC50 [3] | IC50 ([4]; Homo sapiens) | IC50 [5, 6] | IC50 ([5]; enzyme inhibition) | Compound | IC50 ([1]; Homo sapiens, Fibroblast) | IC50 ([2]; Primates, COS) | also measured |
| --- | --- | --- | --- | --- | --- | --- | --- |
| > 41 µM |  |  |  | O=C(Cc1cc[n+]([O-])cc1)N1CCC(=C2c3ccc(Cl)cc3CCc3cccnc32)CC1 [227 (5.102)] |  |  | IC50 [1]: > 50 µM; IC50 [2]: 1 µM; IC50 [4]: 4 µM |
| > 50 µM | > 50 µM |  |  | O=C(CN1C(=O)c2ccccc2C1=O)N1CCN(C2c3ccc(Cl)cc3CCc3cccnc32)CC1 (stereo not shown) [Example 76] | > 50 µM |  |  |
| > 43 µM | 3.1 µM | 0.33 µM |  | O=C(Cc1cc[n+]([O-])cc1)N1CCC(C2c3ccc(Cl)cc3CCc3cccnc32)CC1 (stereo not shown) [Example 234] | > 50 µM | 2.2 µM |  |
| > 40 µM |  | 0.06 µM |  | O=C(Cc1ccncc1)N1CCC(=C2c3ccc(Cl)cc3CCc3cc(Br)cnc32)CC1 [Example 246] | 50 µM |  | IC50 ([1]; listed as 246 (5.121)): > 50 µM |
| > 40 µM |  | 0.72 µM and 5.02 µM |  | CO[C@](C(=O)N1CCC(=C2c3ccc(Cl)cc3CCc3cccnc32)CC1)(c1ccccc1)C(F)(F)F [Example 287] | > 50 µM | > 10 µM |  |
| > 40 µM | 12.5 µM | 1.44 µM and 1.4 µM |  | CC(C)(C(=O)N1CCC(=C2c3ccc(Cl)cc3CCc3cccnc32)CC1)c1ccccc1 [Example 289] | > 50 µM | > 10 µM | IC50 [4]: 18 µM |
| > 38 µM | 12.5 µM | 3.8 µM and 2.55 µM |  | CO[C@@](C(=O)N1CCC(=C2c3ccc(Cl)cc3CCc3cccnc32)CC1)(c1ccccc1)C(F)(F)F [Example 290] | > 50 µM |  | IC50 [4]: 6.25 µM and 8 µM |
| > 46 µM | 18 µM | 0.87 µM |  | O=C(Nc1ccncc1)N1CCC(=C2c3ccc(Cl)cc3CCc3cccnc32)CC1 [Example 291] | > 50 µM | 3.6 µM |  |
| > 44 µM | 6.25 µM | 0.99 µM |  | O=C(Nc1cccnc1)N1CCC(=C2c3ccc(Cl)cc3CCc3cccnc32)CC1 [Example 292] | > 50 µM | 6.8 µM |  |
| > 40 µM | 12.5 µM | 1.76 µM and 0.47 µM |  | O=C(Nc1ccccc1)N1CCC(=C2c3ccc(Cl)cc3CCc3cccnc32)CC1 [Example 293] | > 50 µM | > 11.1 µM | IC50 [2]: 6.5 µM |
| > 35 µM | > 50 µM | 4.58 µM |  | O=C(OC(C(=O)N1CCC(=C2c3ccc(Cl)cc3CCc3cccnc32)CC1)c1ccccc1)c1ccncc1 (stereo not shown) [Example 298] | > 50 µM | > 9 µM |  |
| > 40 µM |  | 2.63 µM |  | CC(C)(C)c1cnc2c(c1)CCc1cc(Cl)ccc1C2=C1CCN(C(=O)Cc2cccnc2)CC1 [Example 304] |  |  | IC50 [1]: > 50 µM |
| 41.3 µM | 10 µM | 0.61 µM |  | O=C(Cc1ccncc1)N1CCC(=C2c3cc(Cl)c(Cl)cc3CCc3cccnc32)CC1 [Example 311] | > 50 µM | 9.5 µM |  |
| > 46 µM | 12.5 µM | 0.9 µM |  | O=C(Nc1ccccc1)N1CCC(C2c3ccc(Cl)cc3CCc3cccnc32)CC1 (stereo not shown) [Example 312] | > 50 µM | 3.8 µM |  |
| > 38 µM | < 1.6 µM | 0.068 µM | 0.068 µM | CN1CCC(CC(=O)N2CCC(C3c4ccc(Cl)cc4C=Cc4cc(Br)cnc43)CC2)CC1 (stereo not shown) [Example 400-B] |  |  |  |
|  | < 1.6 µM | 0.04 µM | 0.04 µM | O=C(Cc1ccncc1)N1CCC(C2c3ccc(Cl)cc3CCc3cc(Br)cnc32)CC1 (stereo not shown) [Example 400-E] | 18 µM |  | GGPT inhibition at the concentration in parentheses ([3]; (38) μM): 30 (38) |
|  | < 1.6 µM | 0.036 µM | 0.036 µM | O=C(Cc1cc[n+]([O-])cc1)N1CCC(C2c3ccc(Cl)cc3CCc3cc(Br)cnc32)CC1 (stereo not shown) [Example 400-F] | > 25 µM |  | GGPT inhibition at the concentration in parentheses ([3]; (36) μM): 0 (36) |
| 1000 µM |  | 0.24 µM | 0.24 µM | CN1CCC(CC(=O)N2CCC(=C3c4ccc(Cl)cc4CCc4cc(Br)cnc43)CC2)CC1 [Example 400-H] |  | 2.5 µM | Inhibition of Ras Processing at the concentration in parentheses [2]: 100 (5); GGPT inhibition at the concentration in parentheses ([3]; (36) μM): 0 (36) |
| 1000 µM |  | 0.14 µM | 0.14 µM | CN1CCC(CC(=O)N2CCC(C3c4ccc(Cl)cc4CCc4cc(Br)cnc43)CC2)CC1 (stereo not shown) [Example 400-J] |  |  | GGPT inhibition at the concentration in parentheses ([3]; (36) μM): 6 (36) |
| 1000 µM |  | 0.21 µM | 0.21 µM | CN1CCCC(CC(=O)N2CCC(=C3c4ccc(Cl)cc4CCc4cc(Br)cnc43)CC2)C1 (stereo not shown) [Example 400-K] |  | 2.2 µM | Inhibition of Ras Processing at the concentration in parentheses [2]: 100 (5); GGPT inhibition at the concentration in parentheses ([3]; (37) μM): 0 (37) |
|  | 1.6 µM | 0.068 µM | 0.068 µM | O=C(Cc1ccncc1)N1CCC(=C2c3ccc(Cl)cc3CCc3cc(I)cnc32)CC1 [Example 400] | > 25 µM |  | GGPT inhibition at the concentration in parentheses ([3]; (36) μM): 29 (36) |
| 1000 µM | < 1.6 µM | 0.063 µM and 0.08 µM | 0.063 µM and 0.08 µM | O=C(Cc1cc[n+]([O-])cc1)N1CCC(=C2c3ccc(Cl)cc3CCc3cc(I)cnc32)CC1 [Example 401] | > 25 µM |  | GGPT inhibition at the concentration in parentheses ([3]; (34) μM): 7 (34) |
|  |  |  | 0.16 µM and 0.17 µM | O=C(Cc1cc[n+]([O-])cc1)N1CCC(=C2c3ccc(Cl)cc3CCc3cc(Cl)cnc32)CC1 [Example 411-W] |  |  | GGPT inhibition at the concentration in parentheses ([3]; (42) μM): 3 (42) |
|  | < 1.6 µM |  | 0.14 µM | O=C(Cc1cc[n+]([O-])cc1)N1CCC(=C2c3ccc(Cl)cc3C=Cc3cc(Br)cnc32)CC1 [Example 417-B] | > 25 µM |  | GGPT inhibition at the concentration in parentheses ([3]; (32) μM): 15 (32) |
|  |  |  | < 0.12 µM | O=C(Cc1ccncc1)N1CCC(C2c3ccc(Cl)cc3C(=NO)Cc3cccnc32)CC1 (stereo not shown) [Example 419] |  |  | GGPT inhibition at the concentration in parentheses ([3]; (41) μM): 0 (41) |

| Compound | IC50 [3] | IC50 ([4]; Homo sapiens) | IC50 [5, 6] | IC50 ([5]; enzyme inhibition) | IC50 ([1]; Homo sapiens, Fibroblast) | IC50 ([2]; Primates, COS) | also measured |
| --- | --- | --- | --- | --- | --- | --- | --- |
| O=C(Cc1ccc(Br)cc1)N1CCN(C2c3ccc(Cl)cc3CCc3cccnc32)CC1 (stereo not shown) [Example 77] | > 39 µM |  |  |  |  |  | IC50 [1]: > 50 µM; IC50 [2]: 9.2 µM; IC50 [4]: > 50 µM |
| O=C(Cc1ccncc1)N1CCC(=C2c3ccc(Cl)cc3CCc3cc(Cl)cnc32)CC1 [Example 180] | > 42 µM | 12.5 µM | 0.04 µM |  | 50 µM |  | IC50 [1]: > 50 µM; IC50 [4]: 18 µM |
| Cc1cnc2c(c1)CCc1cc(Cl)ccc1C2=C1CCN(C(=O)Cc2cccnc2)CC1 [Example 303] | > 43 µM | 8 µM | 0.55 µM |  | > 50 µM | 3.4 µM |  |
| O=C(Nc1cccnc1)N1CCN(C2c3ccc(Cl)cc3CCc3cc(Br)cnc32)CC1 (stereo not shown) [Example 354] | 1000 µM | 6.25 µM | 0.21 µM |  | ≥ 25 µM |  |  |
| CC1(C2CCN(C(=O)Cc3ccncc3)CC2)c2ccc(Cl)cc2CCc2cc(Br)cnc21 (stereo not shown) [Example 410-A] | ~40 µM |  | 0.086 µM | 0.086 µM |  |  | GGPT inhibition at the concentration in parentheses ([3]; (35) μM): 47 (35) |
| CC1(C2CCN(C(=O)Cc3cc[n+]([O-])cc3)CC2)c2ccc(Cl)cc2CCc2cc(Br)cnc21 (stereo not shown) [Example 410-B] | 1000 µM |  | 0.084 µM | 0.084 µM |  |  | GGPT inhibition at the concentration in parentheses ([3]; (35) μM): 21 (35) |
| O=C(CN1CCS(=O)(=O)CC1)N1CCC(=C2c3ccc(Cl)cc3CCc3cc(Br)cnc32)CC1 [Example 410-G] |  |  | 0.21 µM | 0.21 µM |  | 4 µM | GGPT inhibition at the concentration in parentheses ([3]; (33) μM): 32 (33) |
